In patent US10952945B2, “Formulations containing an extract of Echinacea and linoleic acid derivatives” (DR. AUGUST WOLFF GMBH & CO. KG ARZNEIMITTEL, priority 2015, dated 2021):

Biological target: TRPV1 (Homo sapiens, UniProt Q8NER1)
Assay: Determination of TRPV1 agonistic activity (MTT cell viability of 293 T-VR1 cells)
Procedure: 2×10^4 293 T-VR1 cells (or parentale 293T cells as control) are cultivated in 96-well microtiter plates (Costar, Cambridge, Mass.) in 200 μL Dulbecco's Modified Eagle's Medium (DMEM), which also contains 10% foetal calf serum and 1% antibiotics (penicillin/streptomycin). The cells are incubated for 6 h with the test substances or the controls (capsaicin, TRPV1 agonist (1 μM); capsazepine, TRPV1 antagonist (10 μM); or capsaicin (1 μM) and capsazepine (10 μM)). Then, cell viability is determined.
The cytotoxic effect of the test substances was determined using the MTT (3-[4,5-dimethylthiazol-2-yl]-2,5-diphenyltetrazolium bromide) assay method. For this, 50 μL of a solution of MTT in DMEM (5 mg/mL) were added to each well. These were then incubated in the dark for 4 h at 37° C. The reaction was stopped, the residue was removed and 100 μL DMSO were added to each well. Incubation continued for 10 min with gentle shaking. Then the absorption at 550 nm was measured with a TECAN GENios Pro Plate Reader (Tecan Group Ltd., Switzerland). […] The determination was performed in triplicate.

TRPV1, sequence (Q8NER1 whole entry, species assumed): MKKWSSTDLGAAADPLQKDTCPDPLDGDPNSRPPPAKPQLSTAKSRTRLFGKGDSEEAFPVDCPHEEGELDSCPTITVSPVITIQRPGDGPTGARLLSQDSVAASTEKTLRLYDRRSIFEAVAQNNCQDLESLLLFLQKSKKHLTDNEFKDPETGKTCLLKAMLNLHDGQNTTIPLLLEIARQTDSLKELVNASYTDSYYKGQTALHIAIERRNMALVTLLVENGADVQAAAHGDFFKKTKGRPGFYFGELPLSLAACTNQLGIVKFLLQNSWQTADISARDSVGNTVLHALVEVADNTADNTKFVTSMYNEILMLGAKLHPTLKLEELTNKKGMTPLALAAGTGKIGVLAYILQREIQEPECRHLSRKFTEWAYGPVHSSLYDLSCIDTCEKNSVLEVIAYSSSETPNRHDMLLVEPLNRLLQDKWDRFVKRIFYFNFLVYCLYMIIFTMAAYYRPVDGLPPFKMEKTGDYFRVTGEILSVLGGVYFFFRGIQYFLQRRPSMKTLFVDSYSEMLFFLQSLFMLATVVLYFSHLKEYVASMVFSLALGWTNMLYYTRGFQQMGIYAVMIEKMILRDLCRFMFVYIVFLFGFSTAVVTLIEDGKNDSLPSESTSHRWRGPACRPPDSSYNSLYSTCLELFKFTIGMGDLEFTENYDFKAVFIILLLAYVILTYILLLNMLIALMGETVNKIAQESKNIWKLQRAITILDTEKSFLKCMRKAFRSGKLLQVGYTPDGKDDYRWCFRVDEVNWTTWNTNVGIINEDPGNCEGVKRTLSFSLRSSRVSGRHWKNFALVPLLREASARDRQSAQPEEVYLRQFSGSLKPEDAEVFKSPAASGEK

SMILES | cell viability (FIG. 1 experiment, capsaicin (1 μM) and capsazepine (10 μM) together) [%] | cell viability (FIG. 2 experiment, capsaicin together with capsazepine) [%] | cell viability (human, 6 h, 10 μM) [%] | cell viability (FIG. 1 experiment, capsaicin 1 μM, 293 T-VR1 cells, 6 h, percentage of vehicle control) [%] | cell viability (FIG. 2 experiment, capsaicin positive control) [%]
Oc1cc2c(cc1O)CN(C(=S)NCCc1ccc(Cl)cc1)CCC2 [capsazepine] | 101.3 | 104.4 | 106.1 | – | –
COc1cc(CNC(=O)CCCC/C=C/C(C)C)ccc1O [capsaicin] | – | – | – | 54.9 | 70.6
